Values quoted from earlier work as cited in publication PMC6777988 (ACS infectious diseases, 2018).

Experiments:
[1] = test system: C. parvum; settings: combined with partial CpCDPK1 siRNA knockdown
[2] = test system: Cryptosporidium; settings: immunocompromised patients and malnourished children

Compound | effect on proliferation of C. parvum parasites [1] | efficacy in patients [2]
CCOc1ccc2cc(-c3nn(C(C)(C)C)c(N)c3C(N)=O)cnc2c1 [Compound 1517] | further inhibitory effects | –
CC(=O)Oc1ccccc1C(=O)Nc1ncc([N+](=O)[O-])s1 [Nitazoxanide, nitazoxanide] | – | minimal efficacy
CCOc1ccc2cc(-c3nn(CC4CCN(C)CC4)c4ncnc(N)c34)ccc2c1 [Compound 1294] | further inhibitory effects | –
